Laboratory results taken from patent US10681908B2, “Molecules having pesticidal utility, and intermediates, compositions, and processes, related thereto” (Dow AgroSciences LLC, priority 2016, dated 2020).
Read-outs that look alike come from different tables or passages of the source.

How the values were obtained:
[1] = test system: Beet Armyworm (Spodoptera exigua, LAPHEG); experiment: Bioassay on Beet Armyworm (BAW), 128-well diet tray assay; type: in vivo; conditions: for mortality at 50 µg/cm2: 168 h, 50 μg/cm^2 on artificial diet, second instar larvae, five to seven days, 25° C., read-out: BAW % Control (or Mortality) rating
Procedure: (§1) Example A: Bioassays on Beet Armyworm (Spodoptera Exigua, LAPHEG) (“BAW”), Corn Earworm (Helicoverpa zea, HELIZE) (“CEW”), and Cabbage Looper (Trichoplusia ni, TRIPNI) (“CL”)
(§2) Certain molecules disclosed in this document were tested against BAW, CEW, and CL using procedures described in the following examples. In the reporting of the results, the “BAW, CEW, & CL Rating Table” was used (See Table Section).
Bioassays on BAW were conducted using a 128-well diet tray assay. One to five second instar BAW larvae were placed in each well (3 mL) of the diet tray that had been previously filled with 1 mL of artificial diet to which 50 μg/cm^2 of the test molecule (dissolved in 50 μL of 90:10 acetone-water mixture) had been applied (to each of eight wells) and then allowed to dry. Trays were covered with a clear self-adhesive cover and held at 25° C., 14:10 light-dark for five to seven days. Percent mortality was recorded for the larvae in each well; activity in the eight wells was then averaged. The results are indicated in the table entitled “Table ABC: Biological Results” (See Table Section).
(§3) Bioassays on BAW and CL were conducted according to the procedures outlined in Example A: Bioassays on Beet Armyworm (“BAW”) and Cabbage Looper (“CL”) using the indicated concentrations.

[2] = test system: Cabbage Looper (Trichoplusia ni, TRIPNI); experiment: Bioassay on Cabbage Looper (CL), 128-well diet tray assay; type: in vivo; conditions: for mortality at 50 µg/cm2: 168 h, 50 μg/cm^2 on artificial diet, second instar larvae, five to seven days, 25° C., read-out: CL % Control (or Mortality) rating
Procedure: as §1, §2
Bioassays on CL were conducted using a 128-well diet tray assay. One to five second instar CL larvae were placed in each well (3 mL) of the diet tray that had been previously filled with 1 mL of artificial diet to which 50 μg/cm^2 of the test molecule (dissolved in 50 μL of 90:10 acetone-water mixture) had been applied (to each of eight wells) and then allowed to dry. Trays were covered with a clear self-adhesive cover and held at 25° C., 14:10 light-dark for five to seven days. Percent mortality was recorded for the larvae in each well; activity in the eight wells was then averaged. The results are indicated in the table entitled “Table ABC: Biological Results” (See Table Section).
as §3

[3] = 0.05 μg/cm^2, Table CD2 comparative data, read-out: Percent control (or mortality) BAW
[4] = 0.5 μg/cm^2, Table CD2 comparative data, read-out: Percent control (or mortality) BAW
[5] = 5 μg/cm^2, Table CD2 comparative data, read-out: Percent control (or mortality) BAW
[6] = 0.05 μg/cm^2, Table CD2 comparative data, read-out: Percent control (or mortality) CL
[7] = 0.5 μg/cm^2, Table CD2 comparative data, read-out: Percent control (or mortality) CL
[8] = 5 μg/cm^2, Table CD2 comparative data, read-out: Percent control (or mortality) CL

In the case of `C[C@H](CSCC(F)(F)F)NC(=O)c1ccc(/C(F)=C/C(c2cc(Cl)c(Cl)c(Cl)c2)C(F)(F)F)cc1Cl` (stereo partly drawn) [F10, 2-Chloro-4-((Z)-1,4,4,4-tetrafluoro-3-(3,4,5-trichlorophenyl)but-1-en-1-yl)-N—((R)-1-((2,2,2-trifluoroethyl)thio)propan-2-yl)benzamide], the mortality at 0.05 µg/cm2 [1, 3] is reported as 0%, the mortality at 0.5 µg/cm2 [1, 4] is reported as 100% and the mortality at 5 µg/cm2 [1, 5] is reported as 100%. For the same compound, the mortality at 50 µg/cm2 [1] was 50 to 100%, the mortality at 0.05 µg/cm2 [2, 6] was 6% and the mortality at 0.5 µg/cm2 [2, 7] was 100%. The mortality at 5 µg/cm2 [2, 8] was 100% and the mortality at 50 µg/cm2 [2] was 50 to 100%.

Compound `C[C@H](CSCC(F)(F)F)NC(=O)c1ccc(/C(F)=C/C(c2cc(Cl)c(Br)c(Cl)c2)C(F)(F)F)cc1C(F)(F)F` (stereo partly drawn) [F24, 4-((Z)-3-(4-Bromo-3,5-dichlorophenyl)-1,4,4,4-tetrafluorobut-1-en-1-yl)-N—((R)-1-((2,2,2-trifluoroethyl)thio)propan-2-yl)-2-(trifluoromethyl)benzamide] has a mortality at 50 µg/cm2 [1] of 50 to 100% and a mortality at 50 µg/cm2 [2] of 50 to 100%.

`C[C@H](CSCC(F)(F)F)NC(=O)c1ccc(/C(F)=C/C(c2cc(Cl)cc(Br)c2)C(F)(F)F)cc1C(F)(F)F` (stereo partly drawn) [F64, 4-((Z)-3-(3-Bromo-5-chlorophenyl)-1,4,4,4-tetrafluorobut-1-en-1-yl)-N—((R)-1-((2,2,2-trifluoroethyl)thio)propan-2-yl)-2-(trifluoromethyl)benzamide] showed a mortality at 50 µg/cm2 [1] of 50 to 100% and a mortality at 50 µg/cm2 [2] of 50 to 100%.

For `C[C@H](CS(=O)(=O)CC(F)(F)F)NC(=O)c1ccc(/C(F)=C/C(c2cc(Cl)c(Cl)c(Cl)c2)C(C)(F)F)cc1C(F)(F)F` (stereo partly drawn) [F16, 4-((Z)-1,4,4-Trifluoro-3-(3,4,5-trichlorophenyl)pent-1-en-1-yl)-N—((R)-1-((2,2,2-trifluoroethyl)sulfonyl)propan-2-yl)-2-(trifluoromethyl)benzamide], the mortality at 0.05 µg/cm2 ([1]; 0.05 μg/cm^2, read-out: BAW Percent control (or mortality)) was 100%, the mortality at 0.5 µg/cm2 ([1]; 0.5 μg/cm^2, read-out: BAW Percent control (or mortality)) was 100% and the mortality at 5 µg/cm2 ([1]; 5 μg/cm^2, read-out: BAW Percent control (or mortality)) was 100%. It also gave a mortality at 50 µg/cm2 [1] of 50 to 100%, a mortality at 0.05 µg/cm2 ([2]; 0.05 μg/cm^2, read-out: CL Percent control (or mortality)) of 100% and a mortality at 0.5 µg/cm2 ([2]; 0.5 μg/cm^2, read-out: CL Percent control (or mortality)) of 100%. The mortality at 5 µg/cm2 ([2]; 5 μg/cm^2, read-out: CL Percent control (or mortality)) was 100% and the mortality at 50 µg/cm2 [2] was 50 to 100%.

`C[C@H](CSCC(F)(F)F)NC(=O)c1ccc(/C(F)=C/C(c2cc(Cl)c(Cl)c(Cl)c2)C(C)(F)F)cc1` (stereo partly drawn) [FC2, 4-((Z)-1,4,4-Trifluoro-3-(3,4,5-trichlorophenyl)pent-1-en-1-yl)-N—((R)-1-((2,2,2-trifluoroethyl)thio)propan-2-yl)benzamide] was tested, and the mortality at 0.05 µg/cm2 [1, 3] was 0%, the mortality at 0.5 µg/cm2 [1, 4] was 20% and the mortality at 5 µg/cm2 [1, 5] was 100%. It also gave a mortality at 0.05 µg/cm2 [2, 6] of 0%, a mortality at 0.5 µg/cm2 [2, 7] of 0% and a mortality at 5 µg/cm2 [2, 8] of 100%.

With `C[C@H](CS(=O)(=O)CC(F)(F)F)NC(=O)c1ccc(/C(F)=C/C(c2ccc(Cl)c(F)c2)C(F)(F)F)cc1C(F)(F)F` (stereo partly drawn) [PF4, 4-((Z)-3-(4-Chloro-3-fluorophenyl)-1,4,4,4-tetrafluorobut-1-en-1-yl)-N—((R)-1-((2,2,2-trifluoroethyl)sulfonyl)propan-2-yl)-2-(trifluoromethyl)benzamide] the mortality at 50 µg/cm2 [1] was 50 to 100% and the mortality at 50 µg/cm2 [2] was 50 to 100%.

Compound `CCS(=O)(=O)C[C@@H](C)NC(=O)c1ccc(/C(F)=C/C(c2cc(Cl)c(Br)c(Cl)c2)C(F)(F)F)cc1C(F)(F)F` (stereo partly drawn) [F63, 4-((Z)-3-(4-Bromo-3,5-chlorophenyl)-1,4,4,4-tetrafluorobut-1-en-1-yl)-N—((R)-1-(ethylsulfonyl)propan-2-yl)-2-(trifluoromethyl)benzamide] has a mortality at 50 µg/cm2 [1] of 50 to 100% and a mortality at 50 µg/cm2 [2] of 50 to 100%.

In the case of `C=Cc1c(Cl)cc(C(/C=C(\F)c2ccc(C(=O)N[C@H](C)CSCC)c(C(F)(F)F)c2)C(F)(F)F)cc1Cl` (stereo partly drawn) [F47, 4-((Z)-3-(3,5-Dichloro-4-vinylphenyl)-1,4,4,4-tetrafluorobut-1-en-1-yl)-N—((R)-1-(ethylthio)propan-2-yl)-2-(trifluoromethyl)benzamide], the mortality at 50 µg/cm2 [1] is reported as 50 to 100% and the mortality at 50 µg/cm2 [2] is reported as 50 to 100%.
